For this assay, the system named is HBV (hepatitis B virus) in HepG2.2.15 cells. Kind of assay: Cell-based anti-viral activity assay (HBV DNA in supernatant by quantitative PCR). As to the method:
Cell-Based Anti-Viral Activity Assay
The Invention determined the anti-HBV (hepatitis B virus) activity of compounds in HepG2.2.15 cells (Table 1).
HepG2.2.15 is a cell line stably transfected with the HBV genome. HepG2.2.15 cells were cultured in DMEM (1X) with 10% fetal bovine serum (Corning), 100 U penicillin (Gibico), 100 μg/mL streptomycin (Gibico), 250 μg/mL geneticin (Gibco) and GlutaMAXTM-I medium (Invitrogen).
HepG2.2.15 cells were seeded into 96-well plates (4×10^4 cells in 100 μL of medium per well) and incubated overnight at 37° C. The test compounds were weighed and prepared as 10 mM stock solution with DMSO. The stock solutions of the compounds were diluted by a gradient of 3.16 times with DMSO, and then diluted by a gradient of 3.16 times with medium for 50 times. Finally, the diluted compound solutions were added to the cell plate with a total volume of 200 μL and the final DMSO concentration was 1%. The 96-well culture plates loaded with drugs were transferred to an incubator at 37° C. for 5 days. […] nucleic acid releasing agent was added to 96-well PCR reaction plate, and 2 μL of cell supernatant or HBV quantitative standards were added to the corresponding Wells. Centrifuged the plates to fully mix, and incubated at room temperature for 10 min to fully release nucleic acid. Quantified HBV DNA content by fluorescent quantitative PCR (CFX Connect Real-Time System) using Sanxiang Bio hepatitis B virus fluorescent quantitative diagnostic kit.
The standard curve was established by taking the logarithm of the copy number (IU/ml) of the HBV standard sample (log 10) as the abscordinate and the corresponding CT value as the ordinate. The copy number of the sample was calculated according to the corresponding CT of the positive sample and the standard curve, and the percentage of inhibition rate was calculated as follows: • % Inhibition=100-100*(sample HBV copy number−high concentration reference compound column HBV copy number)/DMSO column HBV copy number−high concentration reference compound column HBV copy number).

The mark [1] stands for this setting: 120 h, anti-HBV activity, HepG2.2.15 cells, 5 days, read-out: EC50 (HepG2.2.15).

Where two headings read alike, the source gives them in different places.

Usually EC50 stands for the concentration needed to bring the measured effect to its halfway point. Consider `CCOC(=O)C1=C(CN2CCN3C(=O)N(C45CC(COC)(C4)C5)C[C@@H]3C2)NC(c2nccs2)=N[C@H]1c1cccc(F)c1C` [Compound 3, Ethyl (S)-4-(3-Fluoro-2-Methylphenyl)-6-(((S)-2-(3-(Methoxymethyl)Bicyclo[1.1.1]Pentan-1-Yl)-3-Oxohexahydroimidazo[1,5-a]Pyrazin-7(1H)-Yl)Methyl)-2-(Thiazol-2-Yl)-1,4-Dihydropyrimidine-5-Carboxylate], for which, under setting [1], the EC50 turned out to be 4 nM.

For the compound `CCOC(=O)C1=C(CN2CCN3C(=O)N(C45CC(CC(C)(C)C(=O)O)(C4)C5)C[C@@H]3C2)NC(c2nccs2)=N[C@H]1c1cccc(F)c1C` [Compound 4], under setting [1], the EC50 was determined as 8 nM.

Regarding `CCOC(=O)C1=C(CN2CCN3C(=O)N(C45CC(C(=O)N6CCCC6)(C4)C5)C[C@@H]3C2)NC(c2nccs2)=N[C@H]1c1cccc(F)c1C` [Compound 6, Ethyl (S)-4-(3-Fluoro-2-Methylphenyl)-6-(((S)-3-Oxo-2-(3-(Pyrrolidine-1-Carbonyl)Bicyclo[1.1.1]Pentan-1-Yl)Hexahydroimidazo[1,5-a]Pyrazin-7(1H)-Yl)Methyl)-2-(Thiazol-2-Yl)-1,4-Dihydropyrimidine-5-Carboxylate], the EC50 under setting [1] turned out to be 8 nM.

Take `CCOC(=O)C1=C(CN2CCN3C(=O)N(C45CC(C(N)=O)(C4)C5)C[C@@H]3C2)NC(c2nccs2)=N[C@H]1c1cccc(F)c1C` [Compound 7, ethyl (S)-6-(((S)-2-(3-Carbamoylbicyclo[1.1.1]Pentan-1-Yl)-3-Oxohexahydroimidazo[1,5-a]Pyrazin-7(1H)-Yl)Methyl)-4-(3-Fluoro-2-Methylphenyl)-2-(Thiazol-2-Yl)-1,4-Dihydropyrimidine-5-Carboxylate]: the EC50 under setting [1] was 7 nM.

`CCOC(=O)C1=C(CN2CCN3C(=O)N(C45CC(CS(C)(=O)=O)(C4)C5)C[C@@H]3C2)NC(c2nccs2)=N[C@H]1c1cccc(F)c1C` [Compound 8, Ethyl (S)-4-(3-Fluoro-2-Methylphenyl)-6-(((S)-2-(3-((Methylsulfonyl)Methyl)Bicyclo[1.1.1]Pentan-1-Yl)-3-Oxohexahydroimidazo[1,5-a]Pyrazin-7(1H)-Yl)Methyl)-2-(Thiazol-2-Yl)-1,4-Dihydropyrimidine-5-Carboxylate]: the EC50 under setting [1] is 4 nM.

With `CCOC(=O)C1=C(CN2CCN3C(=O)N(C45CC(NS(C)(=O)=O)(C4)C5)C[C@@H]3C2)NC(c2nccs2)=N[C@H]1c1cccc(F)c1C` [Compound 9, Ethyl (S)-4-(3-Fluoro-2-Methylphenyl)-6-(((S)-2-(3-(Methylsulfonamido)Bicyclo[1.1.1]Pentan-1-Yl)-3-Oxohexahydroimidazo[1,5-a]Pyrazin-7(1H)-Yl)Methyl)-2-(Thiazol-2-Yl)-1,4-Dihydropyrimidine-5-Carboxylate], the EC50 under setting [1] came to 4 nM.

Turning to `CCOC(=O)C1=C(CN2CCN3C(=O)N(C45CC(NC(C)=O)(C4)C5)C[C@@H]3C2)NC(c2nccs2)=N[C@H]1c1cccc(F)c1C` [Compound 10, Ethyl (S)-6-(((S)-2-(3-Acetamidobicyclo[1.1.1]Pentan-1-Yl)-3-Oxohexahydroimidazo[1,5-a]Pyrazin-7(1H)-Yl)Methyl)-4-(3-Fluoro-2-Methylphenyl)-2-(Thiazol-2-Yl)-1,4-Dihydropyrimidine-5-Carboxylate], the EC50 under setting [1] was found to be 8 nM.

With `CCOC(=O)C1=C(CN2CCN3C(=O)N(C45CC(N(C)S(C)(=O)=O)(C4)C5)C[C@@H]3C2)NC(c2nccs2)=N[C@H]1c1cccc(F)c1C` [Compound 11, Ethyl (S)-4-(3-Fluoro-2-Methylphenyl)-6-(((S)-2-(3-(N-Methylmethylsulfonamido)Bicyclo[1.1.1]Pentan-1-Yl)-3-Oxohexahydroimidazo[1,5-a]Pyrazin-7(1H)-Yl)Methyl)-2-(Thiazol-2-Yl)-1,4-Dihydropyrimidine-5-Carboxylate], the EC50 under setting [1] worked out at 4 nM.

Turning to `CCOC(=O)C1=C(CN2CCN3C(=O)N(C45CC(N(C)C(C)=O)(C4)C5)C[C@@H]3C2)NC(c2nccs2)=N[C@H]1c1cccc(F)c1C` [Compound 12, Ethyl (S)-4-(3-Fluoro-2-Methylphenyl)-6-(((S)-2-(3-(N-Methylacetamido)Bicyclo[1.1.1]Pentan-1-Yl)-3-Oxohexahydroimidazo[1,5-a]Pyrazin-7(1H)-Yl)Methyl)-2-(Thiazol-2-Yl)-1,4-Dihydropyrimidine-5-Carboxylate], the EC50 under setting [1] was 3 nM.

Regarding `CCOC(=O)C1=C(CN2CCN3C(=O)N(C45CC(N6CCCC6=O)(C4)C5)C[C@@H]3C2)NC(c2nccs2)=N[C@H]1c1cccc(F)c1C` [Compound 13, Ethyl (S)-4-(3-Fluoro-2-Methylphenyl)-6-(((S)-3-Oxo-2-(3-(2-Oxopyrrolidin-1-Yl)Bicyclo[1.1.1]Pentan-1-Yl) Hexahydroimidazo[1,5-a]Pyrazin-7(1H)-Yl)Methyl)-2-(Thiazol-2-Yl)-1,4-Dihydropyrimidine-5-Carboxylate], the EC50 under setting [1] is 8 nM.

Take `CCOC(=O)C1=C(CN2CCN3C(=O)N(C45CC(CNS(C)(=O)=O)(C4)C5)C[C@@H]3C2)NC(c2nccs2)=N[C@H]1c1cccc(F)c1C` [Compound 14, Ethyl (S)-4-(3-Fluoro-2-Methylphenyl)-6-(((S)-2-(3-(Methylsulfonamidomethyl)Bicyclo[1.1.1]Pentan-1-Yl)-3-Oxohexahydroimidazo[1,5-a]Pyrazin-7(1H)-Yl)Methyl)-2-(Thiazol-2-Yl)-1,4-Dihydropyrimidine-5-Carboxylate]: the half-maximal effective concentration (EC50) under setting [1] was found to be 4 nM.

Take `CCOC(=O)C1=C(CN2CCN3C(=O)N(C45CC(CNC(C)=O)(C4)C5)C[C@@H]3C2)NC(c2nccs2)=N[C@H]1c1cccc(F)c1C` [Compound 15, ethyl (S)-6-(((S)-2-(3-(Acetamidomethyl)Bicyclo[1.1.1]Pentan-1-Yl)-3-Oxohexahydroimidazo[1,5-a]Pyrazin-7(1H)-Yl)Methyl)-4-(3-Fluoro-2-Methylphenyl)-2-(Thiazol-2-Yl)-1,4-Dihydropyrimidine-5-Carboxylate]: under setting [1], the EC50 stood at 4 nM.

In the case of `CCOC(=O)C1=C(CN2CCN3C(=O)N(C45CC(CP(=O)(OCC)OCC)(C4)C5)C[C@@H]3C2)NC(c2nccs2)=N[C@H]1c1cccc(F)c1C` [Compound 16, Ethyl (S)-6-(((S)-2-(3-((Diethoxyphosphoryl)Methyl)Bicyclo[1.1.1]Pentan-1-Yl)-3-Oxohexahydroimidazo[1,5-a]Pyrazin-7(1H)-Yl)Methyl)-4-(3-Fluoro-2-Methylphenyl)-2-(Thiazol-2-Yl)-1,4-Dihydropyrimidine-5-Carboxylate], the EC50 (HepG2.2.15, 120 h, read-out: EC50 (HepG2.2.15, nM)) turned out to be 9 nM.

Take `CCOC(=O)C1=C(CN2CCN3C(=O)N(C45CC(N6CCCS6(=O)=O)(C4)C5)C[C@@H]3C2)NC(c2nccs2)=N[C@H]1c1cccc(F)c1C` [Compound 19, Ethyl (S)-6-(((S)-2-(3-(1,1-Dioxidoisothiazolidin-2-Yl)Bicyclo[1.1.1]Pentan-1-Yl)-3-Oxohexahydroimidazo[1,5-a]Pyrazin-7(1H)-Yl)Methyl)-4-(3-Fluoro-2-Methylphenyl)-2-(Thiazol-2-Yl)-1,4-Dihydropyrimidine-5-Carboxylate]: the EC50 under setting [1] was found to be 3 nM.

For `CCOC(=O)C1=C(CN2CCN3C(=O)N(C45CC(CC#N)(C4)C5)C[C@@H]3C2)NC(c2nccs2)=N[C@H]1c1cccc(F)c1C` [Compound 20, Ethyl (S)-6-(((S)-2-(3-(Cyanomethyl)Bicyclo[1.1.1]Pentan-1-Yl)-3-Oxohexahydroimidazo[1,5-a]Pyrazin-7 (1H)-Yl)Methyl)-4-(3-Fluoro-2-Methylphenyl)-2-(Thiazol-2-Yl)-1,4-Dihydropyrimidine-5-Carboxylate], the EC50 under setting [1] stood at 3 nM.

`CCOC(=O)C1=C(CN2CCN3C(=O)N(C45CC(NS(N)(=O)=O)(C4)C5)C[C@@H]3C2)NC(c2nccs2)=N[C@H]1c1cccc(F)c1C` [Compound 21, Ethyl (S)-4-(3-Fluoro-2-Methylphenyl)-6-(((S)-3-Oxo-2-(3-(Sulfamoylamino)Bicyclo[1.1.1]Pentan-1-Yl)Hexahydroimidazo[1,5-a]Pyrazin-7(1H)-Yl)Methyl)-2-(Thiazol-2-Yl)-1,4-Dihydropyrimidine-5-Carboxylate]: the EC50 under setting [1] amounted to 15 nM.

Consider `CCOC(=O)C1=C(CN2CCN3C(=O)N(C45CC(CNS(=O)(=O)C6CC6)(C4)C5)C[C@@H]3C2)NC(c2nccs2)=N[C@H]1c1cccc(F)c1C` [Compound 23], for which, under setting [1], the EC50 was found to be 4 nM.

For `CCOC(=O)C1=C(CN2CCN3C(=O)N(C45CC(CNS(N)(=O)=O)(C4)C5)C[C@@H]3C2)NC(c2nccs2)=N[C@H]1c1cccc(F)c1C` [Compound 24, Ethyl (S)-4-(3-Fluoro-2-Methylphenyl)-6-(((S)-3-Oxo-2-(3-((Sulfamoylamino)Methyl)Bicyclo[1.1.1]Pentan-1-Yl)Hexahydroimidazo[1,5-a]Pyrazin-7(1H)-Yl)Methyl)-2-(Thiazol-2-Yl)-1,4-Dihydropyrimidine-5-Carboxylate], under setting [1], the EC50 is 9 nM.

Source of the values: patent US20240166649A1, “DIHYDROPYRIMIDINE COMPOUND, PREPARATION METHOD THEREFOR AND APPLICATION THEREOF” (Shanghai Visonpharma Co., Ltd., priority 2021, published 2024).
